Measured values: article PMC9127186, “Molecular Basis Underlying Hepatobiliary and Renal Excretion of Phenolic Acids of Salvia miltiorrhiza Roots (Danshen)” (Frontiers in Pharmacology, 2022)

Target: T1, rat Oct3 (Rattus norvegicus, UniProt O88446)
T1 sequence (O88446 1-551): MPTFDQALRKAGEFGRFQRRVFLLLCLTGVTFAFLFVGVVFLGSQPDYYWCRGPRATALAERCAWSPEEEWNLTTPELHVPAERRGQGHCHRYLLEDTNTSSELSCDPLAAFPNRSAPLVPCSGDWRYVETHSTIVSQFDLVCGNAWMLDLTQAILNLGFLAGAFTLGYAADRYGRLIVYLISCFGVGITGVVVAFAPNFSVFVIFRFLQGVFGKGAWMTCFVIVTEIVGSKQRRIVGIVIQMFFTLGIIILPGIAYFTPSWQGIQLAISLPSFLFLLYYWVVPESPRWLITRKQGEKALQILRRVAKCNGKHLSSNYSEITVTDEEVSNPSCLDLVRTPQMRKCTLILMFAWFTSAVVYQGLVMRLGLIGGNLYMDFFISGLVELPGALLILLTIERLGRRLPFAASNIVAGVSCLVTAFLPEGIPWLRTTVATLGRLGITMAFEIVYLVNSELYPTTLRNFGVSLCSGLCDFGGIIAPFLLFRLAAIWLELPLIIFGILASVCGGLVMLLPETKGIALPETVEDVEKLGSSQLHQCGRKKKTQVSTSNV
Assay: Cellular transport assay, HEK-293 cells expressing rat Oct3
Settings: Danshen phenolic acid at 100 μM final concentration, 10 min; rat Oct3-transfected vs mock cells

| Compound | TransportTC/TransportMC ratio (net transport ratio) |
| --- | --- |
| salvianolic acid B | 0.84 ± 0.31 |
| O=C(O)Cc1c(/C=C/C(=O)O[C@H](Cc2ccc(O)c(O)c2)C(=O)O)ccc(O)c1O [Salvianolic acid D, salvianolic acid D] | 0.93 ± 0.15 |
| O=C(/C=C/c1ccc(O)c2c1[C@H](C(=O)O)[C@@H](c1ccc(O)c(O)c1)O2)O[C@H](Cc1ccc(O)c(O)c1)C(=O)O [Lithospermic acid, lithospermic acid] | 0.81 ± 0.13 |
| O=C(/C=C/c1ccc(O)c(O)c1)O[C@H](Cc1ccc(O)c(O)c1)C(=O)O [Rosmarinic acid, rosmarinic acid] | 0.74 ± 0.24 |
| O=C(O)c1ccc(O)c(O)c1 [Protocatechuic acid, protocatechuic acid] | 0.85 ± 0.11 |

Target: T2, rat Oct2 (Rattus norvegicus, UniProt Q9R0W2)
T2 sequence (Q9R0W2 1-555): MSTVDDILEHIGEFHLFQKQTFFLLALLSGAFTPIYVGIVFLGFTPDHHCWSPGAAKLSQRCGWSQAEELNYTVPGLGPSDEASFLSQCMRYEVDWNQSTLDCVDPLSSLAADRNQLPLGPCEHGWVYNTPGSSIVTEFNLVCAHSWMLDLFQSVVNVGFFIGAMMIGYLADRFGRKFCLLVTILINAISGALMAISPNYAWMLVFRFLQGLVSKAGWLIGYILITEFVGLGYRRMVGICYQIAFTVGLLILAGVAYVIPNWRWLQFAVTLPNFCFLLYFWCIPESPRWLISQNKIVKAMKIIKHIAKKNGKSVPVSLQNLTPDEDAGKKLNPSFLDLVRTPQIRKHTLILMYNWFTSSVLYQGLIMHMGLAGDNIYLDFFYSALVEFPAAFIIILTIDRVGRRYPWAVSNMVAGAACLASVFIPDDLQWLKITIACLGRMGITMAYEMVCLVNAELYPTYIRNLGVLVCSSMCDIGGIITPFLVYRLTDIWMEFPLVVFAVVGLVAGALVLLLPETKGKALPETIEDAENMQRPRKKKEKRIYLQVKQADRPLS
Assay: Cellular transport assay, HEK-293 cells expressing rat Oct2
Settings: Danshen phenolic acid at 100 μM final concentration, 10 min; rat Oct2-transfected vs mock cells

| Compound | TransportTC/TransportMC ratio (net transport ratio) |
| --- | --- |
| salvianolic acid B | 1.08 ± 0.21 |
| O=C(O)Cc1c(/C=C/C(=O)O[C@H](Cc2ccc(O)c(O)c2)C(=O)O)ccc(O)c1O [Salvianolic acid D, salvianolic acid D] | 1.44 ± 0.24 |
| O=C(/C=C/c1ccc(O)c2c1[C@H](C(=O)O)[C@@H](c1ccc(O)c(O)c1)O2)O[C@H](Cc1ccc(O)c(O)c1)C(=O)O [Lithospermic acid, lithospermic acid] | 1.11 ± 0.32 |
| O=C(O)c1ccc(O)c(O)c1 [Protocatechuic acid, protocatechuic acid] | 0.92 ± 0.08 |

Target: T3, human PEPT2 (Homo sapiens, UniProt Q16348)
T3 sequence (Q16348 1-729): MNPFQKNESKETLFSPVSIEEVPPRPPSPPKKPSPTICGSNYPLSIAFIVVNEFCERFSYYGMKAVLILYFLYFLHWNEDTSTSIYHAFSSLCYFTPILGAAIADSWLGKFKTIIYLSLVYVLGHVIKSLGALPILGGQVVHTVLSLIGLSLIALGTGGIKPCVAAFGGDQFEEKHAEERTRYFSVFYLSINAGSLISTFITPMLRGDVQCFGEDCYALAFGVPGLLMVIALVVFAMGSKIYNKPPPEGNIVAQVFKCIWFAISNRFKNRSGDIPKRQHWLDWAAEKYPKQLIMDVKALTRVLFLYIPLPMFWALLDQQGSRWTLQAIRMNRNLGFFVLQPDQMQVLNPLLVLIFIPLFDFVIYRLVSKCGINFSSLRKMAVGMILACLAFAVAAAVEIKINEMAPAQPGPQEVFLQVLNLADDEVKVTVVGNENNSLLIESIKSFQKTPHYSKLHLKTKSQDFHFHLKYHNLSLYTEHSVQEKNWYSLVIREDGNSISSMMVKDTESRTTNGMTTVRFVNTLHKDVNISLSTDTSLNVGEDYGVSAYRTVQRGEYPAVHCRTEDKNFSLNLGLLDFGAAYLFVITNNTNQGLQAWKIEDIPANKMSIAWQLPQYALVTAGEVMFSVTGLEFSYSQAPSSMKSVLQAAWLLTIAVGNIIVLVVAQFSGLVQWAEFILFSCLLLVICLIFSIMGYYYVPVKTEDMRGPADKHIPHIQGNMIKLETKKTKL
Assay: Cellular transport assay, HEK-293 cells expressing human PEPT2
Settings: Danshen phenolic acid at 100 μM final concentration, 10 min, incubation pH 6.0; human PEPT2-transfected vs mock cells

| Compound | TransportTC/TransportMC ratio (net transport ratio) |
| --- | --- |
| salvianolic acid B | 1.06 ± 0.12 |
| O=C(O)Cc1c(/C=C/C(=O)O[C@H](Cc2ccc(O)c(O)c2)C(=O)O)ccc(O)c1O [Salvianolic acid D, salvianolic acid D] | 1.03 ± 0.11 |
| O=C(/C=C/c1ccc(O)c2c1[C@H](C(=O)O)[C@@H](c1ccc(O)c(O)c1)O2)O[C@H](Cc1ccc(O)c(O)c1)C(=O)O [Lithospermic acid, lithospermic acid] | 0.74 ± 0.06 |
| O=C(O)c1ccc(O)c(O)c1 [Protocatechuic acid, protocatechuic acid] | 1.43 ± 0.32 |

Target: T4, human OATP2B1 (Homo sapiens, UniProt O94956)
T4 sequence (O94956 1-709): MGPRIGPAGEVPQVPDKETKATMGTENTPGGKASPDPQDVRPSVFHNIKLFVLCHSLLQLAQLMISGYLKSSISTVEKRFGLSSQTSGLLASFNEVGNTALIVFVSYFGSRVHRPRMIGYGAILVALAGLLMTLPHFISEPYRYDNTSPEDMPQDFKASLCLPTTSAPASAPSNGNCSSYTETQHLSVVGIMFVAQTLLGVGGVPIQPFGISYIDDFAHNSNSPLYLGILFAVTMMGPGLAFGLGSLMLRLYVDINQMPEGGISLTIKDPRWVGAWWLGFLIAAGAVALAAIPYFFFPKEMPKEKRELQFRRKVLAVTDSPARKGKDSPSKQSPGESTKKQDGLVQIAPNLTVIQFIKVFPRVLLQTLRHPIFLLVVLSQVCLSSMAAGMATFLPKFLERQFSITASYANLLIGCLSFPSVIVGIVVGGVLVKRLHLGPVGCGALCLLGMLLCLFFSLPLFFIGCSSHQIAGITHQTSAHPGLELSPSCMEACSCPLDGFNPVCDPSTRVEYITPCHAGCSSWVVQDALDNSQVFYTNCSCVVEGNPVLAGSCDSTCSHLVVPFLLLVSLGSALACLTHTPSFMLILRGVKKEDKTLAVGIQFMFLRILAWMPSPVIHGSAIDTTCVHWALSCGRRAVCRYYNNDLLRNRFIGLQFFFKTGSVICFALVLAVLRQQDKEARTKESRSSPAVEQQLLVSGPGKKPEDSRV
Assay: Cellular transport assay, HEK-293 cells expressing human OATP2B1
Settings: Danshen phenolic acid at 100 μM final concentration, 10 min; human OATP2B1-transfected vs mock cells

| Compound | TransportTC/TransportMC ratio (net transport ratio) |
| --- | --- |
| salvianolic acid B | 1.32 ± 0.33 |
| O=C(O)Cc1c(/C=C/C(=O)O[C@H](Cc2ccc(O)c(O)c2)C(=O)O)ccc(O)c1O [Salvianolic acid D, salvianolic acid D] | 2.27 ± 1.16 |
| O=C(/C=C/c1ccc(O)c2c1[C@H](C(=O)O)[C@@H](c1ccc(O)c(O)c1)O2)O[C@H](Cc1ccc(O)c(O)c1)C(=O)O [Lithospermic acid, lithospermic acid] | 1.16 ± 0.27 |
| O=C(O)c1ccc(O)c(O)c1 [Protocatechuic acid, protocatechuic acid] | 1.36 ± 0.15 |
